One test has as its target human MASP1 (Homo sapiens (Human), UniProt P48740). Nature of the test: Biochemical human MASP1 assay (FRET substrate). The following applies: Average IC50; recombinant human MASP1; read-out: human MASP1 IC50. Put shortly: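 Recombinant human MASP1 (aa 297-699, C-terminal His tag, HEK293-expressed, Ni-NTA purified) diluted to 20 nM in 50 mM HEPES pH 8,0, 100 mM NaCl, 0,01% CHAPS, 0.5 mM glutathione, preincubated with compound in DMSO; reaction started with 20 μM ABZ/Dnp FRET substrate solution. Fluorescence (ex 320/em 420 nm) after 60-120 min at 32 C; IC50 from % inhibition.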

In the next test the target is human MASP2 (Homo sapiens (Human), UniProt O00187). Nature of the test: Biochemical human MASP2 assay (FRET substrate). As to conditions: Average IC50; recombinant human MASP2; read-out: human MASP2 IC50. The method, boiled down:
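Mature recombinant human MASP2, expressed in HEK293 and purified by Ni-NTA affinity, was reacted with a DABCYL FRET peptide substrate (added as a 60 μM solution) for 60-120 min at 32 C. Fluorescence increase was read at ex 340/em 490 nm; IC50 was derived from % inhibition versus compound concentration.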

Test [1] relates to Human C3-DEPOSITION SERUM. Nature of the test: C3 deposition assay, human serum on mannan-coated plates. The following applies: Average IC50, read-out: Human C3-DEPOSITION SERUM IC50. It is filed as biochemical. Put shortly:
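Plates coated overnight at 4° C with S. cerevisiae mannan (10 μg/mL, pH 9.6), blocked with 1% BSA in TBS 2 h at 37° C; washes in TBS/0.05% Tween 20/5 mM CaCl2. Antibodies diluted in wash buffer with 0.5% BSA. Colorimetric read-out at 450 nm.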

For another test, the target named is rat MASP1 (Rattus norvegicus (Rat), UniProt Q8CHN8). Nature of the test: Biochemical rat MASP1 assay (FRET substrate). The following applies: Average IC50; recombinant rat MASP1; read-out: rat MASP1 IC50. An excerpt:
A truncated cDNA sequence of rat MASP1encoding the fragment corresponding to the amino acids 302-704 with a C-terminal His Tag and N-terminal Ig-kappa secretion signal (SEQ ID No: 4) was subcloned into the mammalian expression vector pcDNA3.1 (Invitrogen).
The MASP1 or MASP2 expression vectors were transfected into the HEK293 (ATCC No. CRL-1573) cell line using Lipofectamine LTX® Reagent (Thermo-Fischer), as described by the manufacturer. The mature form of the recombinant rat MASP1 and MASP2 proteases were secreted into the culture medium. The MASP1 and MASP2 proteins were purified from the conditioned media by affinity chromatography on Ni-NTA Superflow resin (Qiagen) as described by the manufacturer.
4.2 Biochemical Rat MASP1 Assay.
Recombinant rat MASP1 enzyme produced in the HEK 293 cells was diluted in the reaction buffer (50 mM HEPES pH 8,0; 100 mM NaCl; 0,01% CHAPS; 0.5 mM Gluthathione) to the concentration of 4 nM and 25 μl was transferred into each single well of 384-well white microtiter plate (Greiner Bio One 781075). 1 μl of the inhibitor compound solution (dissolved in DMSO, at the corresponding concentration) or pure DMSO as a control was added to the same wells. The enzymatic reaction was initiated by addition of 25 μl of 40 μM solution of the FRET substrate Dabcyl-[…]-Glu(Edans)-NH2; (Dabcyl-4-((4-(dimethylamino)phenyl)azo)benzoic acid; Edans-5-[(2-Aminoethyl) amino]naphthalene-1-sulfonyl; custom synthesis by Jerini Peptide Technologies, Berlin) in the reaction buffer. The microtiter plate was incubated for 60-120 min at the temperature of 32 C. The increase of fluorescence intensity was measured in appropriate fluorescence plate reader (e.g. TECAN Ultra) using excitation wavelength of 340 nm and emission wavelength of 490 nm. IC50 values were calculated from percentage of inhibition of rat […] activity as a function of test compound concentration.

The next test addresses rat MASP2 (Rattus norvegicus (Rat), UniProt Q9JJS8). Nature of the test: Biochemical rat MASP2 assay (FRET substrate). The following applies: Average IC50; recombinant rat MASP2; read-out: rat MASP2 IC50. An excerpt: The MASP1 or MASP2 expression vectors were transfected into the HEK293 (ATCC No. CRL-1573) cell line using Lipofectamine LTX® Reagent (Thermo-Fischer), as described by the manufacturer. […] The MASP1 and M[…] were purified from the conditioned media by affinity chromatography on Ni-NTA Superflow resin (Qiagen) as described by the manufacturer.

Molecules are shown by their SMILES. pIC50: −log10 of the molar value. *1 amine or outer side, *2 acyl side, *3 side chain or, on linkers, in order; H or OH if unused. Where a SMILES comes first, the peptide text is derived from it. Bridges are numbered along the chain shown (N, C = ends). [ ]: non-standard residue; d: D form. Oic = O=C(O)[C@@H]1C[C@@H]2CCCC[C@@H]2N1; Adipoyl = O=C(CCCCC(=O)[*:2])[*:1]; tBuAla = CC(C)(C)C[C@H](N)C(=O)O; Pen = CC(C)(S)[C@H](N)C(=O)O; Dap = NC[C@H](N)C(=O)O; Ahx = NCCCCCC(=O)O; Sar = CNCC(=O)O

Chain of rat MASP1 (Q8CHN8 other isoform, or with tags, fused parts or gaps): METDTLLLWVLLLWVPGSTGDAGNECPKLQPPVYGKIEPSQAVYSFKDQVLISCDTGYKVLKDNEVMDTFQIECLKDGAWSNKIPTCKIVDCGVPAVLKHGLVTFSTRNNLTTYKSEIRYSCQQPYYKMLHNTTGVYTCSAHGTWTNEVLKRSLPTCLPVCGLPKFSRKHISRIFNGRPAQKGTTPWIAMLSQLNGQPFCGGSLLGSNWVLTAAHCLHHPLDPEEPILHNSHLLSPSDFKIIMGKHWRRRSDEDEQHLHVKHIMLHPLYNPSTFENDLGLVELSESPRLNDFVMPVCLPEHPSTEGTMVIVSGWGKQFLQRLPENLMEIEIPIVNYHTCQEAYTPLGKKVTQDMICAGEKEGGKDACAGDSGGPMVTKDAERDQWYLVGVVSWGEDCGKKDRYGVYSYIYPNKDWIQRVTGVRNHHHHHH
Chain of human MASP1 (P48740 other isoform, or with tags, fused parts or gaps): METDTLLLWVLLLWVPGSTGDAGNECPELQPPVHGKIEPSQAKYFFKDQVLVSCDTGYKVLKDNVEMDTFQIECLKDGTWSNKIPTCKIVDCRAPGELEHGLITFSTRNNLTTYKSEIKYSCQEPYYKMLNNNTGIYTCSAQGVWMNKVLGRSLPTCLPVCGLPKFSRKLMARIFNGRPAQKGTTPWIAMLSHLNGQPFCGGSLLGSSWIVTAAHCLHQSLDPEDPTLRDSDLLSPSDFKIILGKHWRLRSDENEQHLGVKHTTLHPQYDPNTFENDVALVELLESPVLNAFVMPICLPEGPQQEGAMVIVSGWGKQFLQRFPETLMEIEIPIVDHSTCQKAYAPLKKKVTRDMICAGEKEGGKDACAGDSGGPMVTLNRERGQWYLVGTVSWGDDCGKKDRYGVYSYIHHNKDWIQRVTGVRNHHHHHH
Chain of human MASP2 (O00187 other isoform, or with tags, fused parts or gaps): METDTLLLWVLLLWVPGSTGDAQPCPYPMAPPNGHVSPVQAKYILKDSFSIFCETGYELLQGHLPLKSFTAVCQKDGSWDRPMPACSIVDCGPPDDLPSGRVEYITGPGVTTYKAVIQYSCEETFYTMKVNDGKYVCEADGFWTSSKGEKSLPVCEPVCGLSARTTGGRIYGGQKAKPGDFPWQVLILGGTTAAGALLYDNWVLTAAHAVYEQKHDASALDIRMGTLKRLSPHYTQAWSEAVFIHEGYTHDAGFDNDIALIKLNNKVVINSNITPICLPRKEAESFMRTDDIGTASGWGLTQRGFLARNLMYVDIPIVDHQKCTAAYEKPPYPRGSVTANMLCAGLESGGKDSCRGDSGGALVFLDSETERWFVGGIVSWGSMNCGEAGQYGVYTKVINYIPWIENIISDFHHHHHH
Chain of rat MASP2 (Q9JJS8 other isoform, or with tags, fused parts or gaps): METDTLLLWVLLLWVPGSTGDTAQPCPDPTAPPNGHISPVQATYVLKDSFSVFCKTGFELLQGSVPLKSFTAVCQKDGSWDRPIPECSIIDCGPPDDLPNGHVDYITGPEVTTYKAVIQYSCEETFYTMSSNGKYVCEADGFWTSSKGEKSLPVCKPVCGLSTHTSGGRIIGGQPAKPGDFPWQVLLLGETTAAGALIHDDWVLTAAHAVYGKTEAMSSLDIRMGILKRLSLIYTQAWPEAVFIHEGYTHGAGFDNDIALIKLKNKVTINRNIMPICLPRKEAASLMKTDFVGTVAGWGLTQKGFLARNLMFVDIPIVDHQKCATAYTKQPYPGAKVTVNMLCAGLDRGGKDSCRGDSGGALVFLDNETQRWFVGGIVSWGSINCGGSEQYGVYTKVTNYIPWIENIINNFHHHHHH

For the molecule `CC[C@H](C)[C@@H]1NC(=O)CCCCCNC(=O)[C@H]([C@@H](C)CC)NC(=O)[C@H]2NC(=O)[C@H]([C@@H](C)CC)NC(=O)[C@@H]3CCCN3C(=O)[C@@H]3CCCN3C(=O)[C@H](CC(C)(C)C)NC(=O)[C@H](CO)NC(=O)[C@H](CCCNC(=N)N)NC(=O)[C@H](CO)NC(=O)[C@H](CSSC2(C)C)NC1=O` [Example 52, N-{3-[(5aS,11S,14S,17S,20S,23R,26S,36S,39R,42S,44aS)-26,36,42-tri[(2S)-butan-2-yl]-11-(2,2-dimethylpropyl)-14,20-bis(hydroxymethyl)-45,45-dimethyl-5,10,13,16,19,22,25,28,35,38,41,44-dodecaoxodotetracontahydro-1H,5H-23,39-(methanodithiomethano)dipyrrolo[2,1-1:2′,1′-o][1,4,7,10,13,16,19,22,25,28,31,34]dodecaazacyclotetracontin-17-yl]propyl}guanidine] (cyclo([Ahx]ICSRS[tBuAla]PPI[Pen]I); disulfide 3-11), the pIC50 at human MASP1 is 8.10; on human MASP2, 8.03; in test [1], 7.63; at rat MASP1, 7.10; at rat MASP2, 7.94.
As to `CC[C@H](C)[C@@H]1NC(=O)CN(C)C(=O)CCCCCNC(=O)[C@H]([C@@H](C)CC)NC(=O)[C@H]2NC(=O)[C@H]([C@@H](C)CC)NC(=O)[C@@H]3CCCN3C(=O)[C@@H]3CCCN3C(=O)[C@H](CC(C)(C)C)NC(=O)[C@H](CO)NC(=O)[C@H](CCCNC(=N)N)NC(=O)[C@H](CO)NC(=O)[C@H](CSSC2(C)C)NC1=O` [Example 64, N-{3-[(5aS,11S,14S,17S,20S,23R,26S,39S,42R,45S,47aS)-26,39,45-tri[(2S)-butan-2-yl]-11-(2,2-dimethylpropyl)-14,20-bis(hydroxymethyl)-30,48,48-trimethyl-5,10,13,16,19,22,25,28,31,38,41,44,47-tridecaoxohexatetracontahydro-5H-23,42-(methanodithiomethano)dipyrrolo[2,1-1:2′,1′-o][1,4,7,10,13,16,19,22,25,28,31,34,37]tridecaazacyclotritetracontin-17-yl]propyl}guanidine] (cyclo([Ahx][Sar]ICSRS[tBuAla]PPI[Pen]I); disulfide 4-12), the pIC50 was 8.03 at human MASP1; 7.92 on human MASP2; 7.75 in test [1]; 6.80 at rat MASP1; 7.89 at rat MASP2.
For `CC[C@H](C)[C@@H]1NC(=O)[C@H](CN)NC(=O)[C@H](CN)NC(=O)[C@@H]2CCCN2C(=O)[C@H]([C@@H](C)CC)NC(=O)[C@H]2NC(=O)[C@H]([C@@H](C)CC)NC(=O)[C@@H]3C[C@@H]4CCCC[C@@H]4N3C(=O)[C@@H]3CCCN3C(=O)[C@H](CC(C)C)NC(=O)[C@H](CO)NC(=O)[C@H](CCCNC(=N)N)NC(=O)[C@H](CO)NC(=O)[C@H](CSSC2(C)C)NC1=O` [Example 89], in that order: 8.24, 7.04, 7.73, 6.54 and 7.19.
For `CC[C@H](C)[C@@H]1NC(=O)CN(C)C(=O)CCCCCNC(=O)[C@@H]2CCCN2C(=O)[C@H]([C@@H](C)CC)NC(=O)[C@H]2NC(=O)[C@H]([C@@H](C)CC)NC(=O)[C@@H]3CCCN3C(=O)[C@@H]3CCCN3C(=O)[C@H](CC(C)(C)C)NC(=O)[C@H](CO)NC(=O)[C@H](CCCNC(=N)N)NC(=O)[C@H](CO)NC(=O)[C@H](CSSC2(C)C)NC1=O` [Example 54, N-{3-[(6S,9S,12S,15S,18R,21S,33aS,39S,42R,45S,47aS,52aS)-21,39,45-tri[(2S)-butan-2-yl]-6-(2,2-dimethylpropyl)-9,15-bis(hydroxymethyl)-25,53,53-trimethyl-5,8,11,14,17,20,23,26,33,38,41,44,47,52-tetradecaoxopentacontahydro-1H,5H-18,42-(methanodithiomethano)tripyrrolo[2,1-c:2′,1′-o:2″,1″-r][1,4,7,10,13,16,19,22,25,28,31,34,37,40]tetradecaazacyclohexatetracontin-12-yl]propyl}guanidine], in that order: 8.07, 7.48, 7.40, 6.74 and 7.74.
Taken in the same sequence, the figures for `CC[C@H](C)[C@@H]1NC(=O)CCCCC(=O)NC[C@@H](C(N)=O)NC(=O)[C@H](CC(=O)O)NC(=O)[C@@H]2CCCN2C(=O)[C@H]([C@@H](C)CC)NC(=O)[C@H]2NC(=O)[C@H]([C@@H](C)CC)NC(=O)[C@@H]3CCCN3C(=O)[C@@H]3CCCN3C(=O)[C@H](CC(C)(C)C)NC(=O)[C@H](CO)NC(=O)[C@H](CCCNC(=N)N)NC(=O)[C@H](CO)NC(=O)[C@H](CSSC2(C)C)NC1=O` [Example 60] (ICSRS[tBuAla]PPI[Pen]IPD[Dap]-NH2; disulfide 2-10; linker N-14 via Adipoyl) were 7.24, 8.27, 7.69, 6.48 and 7.89.
For the molecule `CC[C@H](C)[C@@H]1NC(=O)CNC(=O)CNC(=O)[C@H](C)NC(=O)[C@@H](CC(=O)O)NC(=O)[C@@H]2CCCN2C(=O)[C@H]([C@@H](C)CC)NC(=O)[C@H]2NC(=O)[C@H]([C@@H](C)CC)NC(=O)[C@@H]3CCCN3C(=O)[C@@H]3CCCN3C(=O)[C@H](CC(C)(C)C)NC(=O)[C@H](CO)NC(=O)[C@H](CCCNC(=N)N)NC(=O)[C@H](CO)NC(=O)[C@H](CSSC2(C)C)NC1=O` [Example 39] (cyclo(AGGICSRS[tBuAla]PPI[Pen]IP[dD]); disulfide 5-13), the negative-log IC50 (pIC50) on human MASP1 was 8.22; on human MASP2, 7.12; in test [1], 7.47; at rat MASP1 it was 7.36; on rat MASP2 it was 8.10.
Regarding `CC[C@H](C)[C@@H]1NC(=O)CCCCCNC(=O)CC[C@@H](C(N)=O)NC(=O)[C@@H]2CCCN2C(=O)[C@H]([C@@H](C)CC)NC(=O)[C@H]2NC(=O)[C@H]([C@@H](C)CC)NC(=O)[C@@H]3C[C@@H]4CCCC[C@@H]4N3C(=O)[C@@H]3CCCN3C(=O)[C@H](CC(C)C)NC(=O)[C@H](CO)NC(=O)[C@H](CCCNC(=N)N)NC(=O)[C@H](CO)NC(=O)[C@H](CSSC2(C)C)NC1=O` [Example 75] ([Ahx]ICSRSLP[Oic]I[Pen]IPE-NH2; disulfide 3-11; lactam N-14), the negative logarithm of the IC50 (pIC50) at human MASP1 was 8.14; on human MASP2, 7.85; on rat MASP1, 7.57; on rat MASP2 it was 8.85.
On to `CC[C@H](C)[C@@H]1NC(=O)CNC(=O)[C@H](CC(=O)O)NC(=O)[C@@H]2CCCN2C(=O)[C@H]([C@@H](C)CC)NC(=O)[C@@H]2CSSC[C@H](NC1=O)C(=O)N[C@@H](CO)C(=O)N[C@@H](CCCNC(=N)N)C(=O)N[C@@H](CO)C(=O)N[C@@H](CC(C)C)C(=O)N1CCC[C@H]1C(=O)N1CCC[C@H]1C(=O)N[C@@H]([C@@H](C)CC)C(=O)N2` [Ref. No 7, reference compound] (cyclo(CIPDGICSRSLPPI); disulfide 1-7), for which the negative logarithm of the IC50 (pIC50) is 6.84 at human MASP1, 6.05 at human MASP2, 6.00 at rat MASP1 and 6.63 at rat MASP2.
